Experimental data as given in EP0415776A2, “Indolobenzoquinoline derivatives, their preparation and their use as anti-arrhythmic drugs” (Sankyo Company Limited, priority 1989, dated 1991).
Where a name gives a salt, the structure may show the parent alone.

Test system: arrhythmias caused by myocardial ischemia in dogs
Assay: arrhythmias caused by myocardial ischemia in dogs (glass bead injected into left coronary artery)
Type: in vivo, Male Beagles
Protocol: Male Beagles weighing 8 - 12 kg were anesthetized with sodium pentobarbital (30 mg/kg i.v.). The animal was placed in a supine position, and the left carotid artery was isolated from the surrounding tissue. A metal cannula was then introduced from the left carotid artery and its tip was placed at the coronary orifice. A glass bead having a diameter of 1.7 mm was injected through the metal cannula into the left coronary artery. The glass bead injection produced a ST segment elevation, which was followed by ventricular arrhythmias due to myocardial infarction.
The dog was used in a conscious state for 24 hours after myocardial ischemia developed, when the arrythmic ratio exceeded 70%. The arrhythmic ratio was calculated by dividing the number of arrhythmias by the total heart beats in one minute.
Figures 1 and 2 of the accompanying drawings show the course of the arrhythmias with time following a single intravenous administration of the compound of Example 1 and its racemate, respectively.

In the case of `N[C@@H]1Cc2c3n(c4cccc(O)c24)C(=O)C[C@H]2CCC[C@@H]1[C@@H]32` [Example 1, (3aR,4R,12aR,12bS) 4-Amino-2,3,3a,4,5,12,12a,12b-octahydro-6-hydroxyindolo[3,2,1,-ij]benz[de]quinolin-11-(1 H)-one hydrochloride sesquihydrate], the “suppressing arrhythmias, compared with racemate” value (Example 1 at 2.5 mg/kg i.v. versus racemate at 5.0 mg/kg i.v.) was “almost comparable with its racemate at 5.0 mg/kg i.v”, the “potency in anti-arrhythmic action relative to racemate” value (single i.v. administration, dogs, inferred from 2.5 mg/kg vs 5.0 mg/kg) was “about twice” and the “number of arrhythmias per minute” value (single intravenous administration, conscious dog 24 hours after myocardial ischemia developed, course with time, Figures 1 and 2) was “decreased the number of arrhythmias per minute”.
